Like-named read-outs stand apart in the source and are kept apart here.
Tests used:
CB2R [1] = target: T1, CB2R (Homo sapiens, UniProt P34972); set-up: expressed in transfected cells; host or cells: HEK-293T (HEK-CB2 cell line)
CB1R = CB1R (Homo sapiens, UniProt P21554); set-up: host or cells: CHO-CB1 C3 cell line
CB2R [2] = target: T1, CB2R; assay: CB2R cAMP determination after forskolin stimulation in transfected HEK-293T cells; assay type: cell-based; set-up: expressed in transfected cells; host or cells: HEK-293T, transient transfection (PEI)
Protocol: (§1) Initially we tested their ability to modify CB2R-mediated cAMP accumulation, providing insights into their functional behavior as either agonists or antagonists (Table ). Moreover, the signaling profiles of selected ligands were investigated through their impact on β-arrestin recruitment and Mitogen-Activated Protein Kinase (MAPK) phosphorylation pathway, enabling a more comprehensive evaluation of their intracellular signaling profiles (Table ).
HEK-293T cells were grown in Dulbecco’s Modified Eagle’s Medium (DMEM) medium (Gibco, Paisley, Scotland, United Kingdom) supplemented with 2 mM L-glutamine, 100 U/mL penicillin/streptomycin, MEM Non-Essential Amino Acids Solution (1/100) and 5% (v/v) heat inactivated Fetal Bovine Serum (FBS) (Invitrogen, Paisley, Scotland, United Kingdom). Cells were maintained in a humid atmosphere of 5% CO2 at 37 °C. Cells were transiently transfected with the PEI (Polyethylenimine, Sigma, St. Louis, MO, United States) method as previously described and used for functional assays 48 h later.
Signaling experiments have been performed as previously described. Two hours before initiating the experiment, HEK-293T cell-culture medium was replaced by serum-starved DMEM medium. Then, cells were detached, resuspended in growing medium containing […] zardaverine (Tocris, Bristol, U.K.) and placed in 384-well microplates (2500 cells/well). Cells were pretreated (15 min) with cannabinoid compounds (1 nM to 100 μM) -or vehicle- before adding […] forskolin (Tocris, Bristol, U.K.) to induce cAMP accumulation. Readings were performed after 15 min incubation at 25 °C. Homogeneous Time Resolved Fluorescence (HTRF) energy transfer measures were performed using the Lance Ultra cAMP kit (PerkinElmer, Waltham, MA, United States). Fluorescence at 665 nm was analyzed in a PHERA star Flagship microplate reader equipped with an HTRF optical module (BMG Lab Technologies, Offenburg, Germany).

CB2R [3] = target: T1, CB2R; assay: CB2R MAPK phosphorylation; assay type: cell-based; set-up: expressed in transfected cells; host or cells: HEK-293T, transient transfection (PEI)
Description: as §1
(§2) JWH-133, a well-known nonbiased (balanced) agonist, was employed as the reference for comparing the signaling profiles of the tested compounds. An operational model analysis was applied to quantify the functional bias of each CB2R-selective agonist. This involved calculating the bias factor by comparing the signaling pathways: β-arrestin versus cAMP, MAPK versus cAMP, and β-arrestin versus MAPK.

CB2R [4] = target: T1, CB2R; assay: CB2R β-arrestin recruitment; assay type: cell-based; set-up: expressed in transfected cells; host or cells: HEK-293T, transient transfection (PEI)
Description: as §1, §2

[5] = read-out: CB2R Ki; abused SCRAs and N-methyl analogues, earlier study of the authors; cited from earlier work
[6] = read-out: CB1R Ki; abused SCRAs and N-methyl analogues, earlier study of the authors; cited from earlier work
[7] = at 1 μM, earlier study of the authors; cited from earlier work

T1 sequence (P34972 whole entry): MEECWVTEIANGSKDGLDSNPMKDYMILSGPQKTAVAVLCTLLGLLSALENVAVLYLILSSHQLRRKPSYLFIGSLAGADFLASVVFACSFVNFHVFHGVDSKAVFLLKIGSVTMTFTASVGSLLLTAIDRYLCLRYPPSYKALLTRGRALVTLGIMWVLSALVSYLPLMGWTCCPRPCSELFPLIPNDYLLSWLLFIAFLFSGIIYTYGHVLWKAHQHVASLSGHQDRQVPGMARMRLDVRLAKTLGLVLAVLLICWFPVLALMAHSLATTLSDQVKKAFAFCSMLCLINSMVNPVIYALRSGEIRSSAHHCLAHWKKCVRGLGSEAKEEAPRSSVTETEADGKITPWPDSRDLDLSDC
CB1R, sequence (P21554 whole entry): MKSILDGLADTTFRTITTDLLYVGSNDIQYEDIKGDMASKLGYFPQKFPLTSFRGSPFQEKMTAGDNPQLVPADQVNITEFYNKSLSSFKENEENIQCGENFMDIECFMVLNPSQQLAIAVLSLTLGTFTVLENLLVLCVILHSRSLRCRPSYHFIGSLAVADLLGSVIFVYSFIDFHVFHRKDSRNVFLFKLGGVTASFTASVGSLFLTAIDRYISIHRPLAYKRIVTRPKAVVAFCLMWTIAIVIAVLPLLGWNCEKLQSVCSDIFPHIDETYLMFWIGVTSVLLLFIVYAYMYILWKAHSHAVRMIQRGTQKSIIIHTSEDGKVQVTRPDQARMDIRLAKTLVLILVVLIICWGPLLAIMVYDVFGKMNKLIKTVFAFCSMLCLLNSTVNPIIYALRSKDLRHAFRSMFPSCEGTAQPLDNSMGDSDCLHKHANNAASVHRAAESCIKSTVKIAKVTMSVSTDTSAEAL

SMILES	Ki (CB2R [1]; [5]) [nM]	Ki (CB1R; [6]) [nM]	also measured
CC(C)(C)[C@H](NC(=O)c1cn(Cc2ccc(F)cc2)c2ccccc12)C(N)=O [compound 10, ADB-FUBICA]	5.15	53.8	
CCCCCn1nc(C(=O)N[C@H](C(N)=O)C(C)C)c2ccccc21 [compound 5, AB-PINACA]	0.94	1.16	
CCCC(C)(C)c1ccc2c(c1)OC(C)(C)[C@@H]1CC=C(C)C[C@@H]21 [JWH-133, reference compound]			CB2R Emax AMPc (CB2R [2]; normalized to maximal efficacious concentration of CP 55,940): 98%; EC50 (CB2R [2]; transfected HEK-293T cells, forskolin-stimulated cAMP, read-out: CB2R EC50 AMPc): 6.73 ± 0.5 nM; EC50 (CB2R [3]): 2.7 ± 0.19 nM; CB2R Emax MAPK (CB2R [3]; normalized to CP 55,940): 98%; EC50 (CB2R [4]): 1.34 ± 0.05 nM; CB2R Emax β-arrestin (CB2R [4]; normalized to CP 55,940): 93%
COC(=O)CN(C)C(=O)c1nn(Cc2ccc(F)cc2)c2ccccc12 [compound 12]	540		CB1R % (1 μM) (CB1R; [7]): 33%
NC(=O)CNC(=O)c1nn(CC2CCCCC2)c2ccccc12 [compound 13]	171	268	
COC(=O)[C@@H](NC(=O)c1cn(Cc2ccc(F)cc2)c2ccccc12)C(C)C [compound 4, AMB-FUBICA]			Ki (CB2R [1]; abused SCRAs and N-methyl analogues, earlier study of the authors; read-out: CB2R Ki; cited from earlier work): 20 nM; Ki (CB1R; abused SCRAs and N-methyl analogues, earlier study of the authors; read-out: CB1R Ki; cited from earlier work): 47.8 nM
COC(=O)[C@@H](NC(=O)c1nn(Cc2ccc(F)cc2)c2ccccc12)C(C)(C)C [compound 2, MDMB-FUBINACA]	0.3	0.83	
CN(CC(N)=O)C(=O)c1nn(CC2CCCCC2)c2ccccc12 [compound 14]	482		CB1R % (1 μM) (CB1R; [7]): 21%
CC(C)[C@H](NC(=O)c1nn(CC2CCCCC2)c2ccccc12)C(N)=O [compound 6]	1.1	0.9	
CC(C)[C@H](NC(=O)c1cn(Cc2ccc(F)cc2)c2ccccc12)C(N)=O [compound 8, AB-FUBICA]	83.2	35.2	
COC(=O)[C@@H](NC(=O)c1cn(CC2CCCCC2)c2ccccc12)C(C)C [compound 3, AMB-CHMICA]	3.44	10.5	
CC(C)[C@H](NC(=O)c1cn(CCCCCF)c2ccccc12)C(N)=O [compound 7, 5F-AB-PICA]	8.6	14.8	
COC(=O)CNC(=O)c1nn(Cc2ccc(F)cc2)c2ccccc12 [compound 11]	125	181	
CC(C)(C)[C@H](NC(=O)c1cn(CC2CCCCC2)c2ccccc12)C(N)=O [compound 9, ADB-CHMICA]	0.76	1.1	
COC(=O)[C@@H](NC(=O)c1nn(CCCCCF)c2ccccc12)C(C)(C)C [compound 1, 5F-MDMB-PINACA]	0.1	0.8	

— paper PMC12406204 (Journal of Medicinal Chemistry, 2025)
